Values of other authors as cited in patent publication US9550991B2, “Transcription factor decoys” (PROCARTA […]., priority 2010, dated 2017).
Entries after “also recorded” stand apart in the source; their conditions may differ.

Legend:
[1] = physiological buffers, biological fluids, salt, dilution, storage

Row | Structure (SMILES) | in vitro toxicity compared to dequalinium | stability of complexes formed with DNA [1]
1 | Nc1c2c([n+](CCCCCCCCCC[n+]3c4c(c(N)c5ccccc53)CCCC4)c3ccccc13)CCCC2.[Cl-].[Cl-] [Compound 7, 10,10′-(decane-1,10-diyl)bis(9-amino-1,2,3,4-tetrahydroacridinium) dichloride] | lower toxicity in vitro compared to dequalinium; also recorded: less in vitro toxicity than dequalinium | forms more stable complexes
2 | Cc1cc(N)c2ccccc2[n+]1CCCCCCCCCC[n+]1c(C)cc(N)c2ccccc21 [dequalinium] | – | unstable over time
